According to PubChem BioAssay (NCI):
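Tested at 5 concentrations; 48 h exposure; 96-well plates; endpoints linearly interpolated, else capped at highest concentration. TGI denotes the concentration required for complete inhibition of growth.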

What follows are molecules tested on CAKI-1 renal (assay: inhibition of tumour cell growth, NCI panel, 48 h).

SMILES | TGI [µM]
Nc1cc2c3c(cccc3c1)C(=O)N(c1ccc(OCCN3CCCC3)cc1)C2=O | > 61.5
Cc1cc2ccc(N)nc2[nH]c1=O | > 100
O=C(N/N=C\c1ccc([N+](=O)[O-])s1)c1ccncc1 | 49.2
C=C1C(=O)OC2C3OC(C)(CCC(O)C3COC(C)=O)CC(OC(=O)/C(=C/C)COC(C)=O)C12 (stereo not given) | 0.39
COc1ccccc1NC(=S)N/N=C/c1cccc(C)n1 | 74.7
CCOC(=O)/C=C/[C@@H](CC)O[Si](C(C)C)(C(C)C)C(C)C | > 100
Cc1c(O)c(=O)ccn1CCc1ccc(O)cc1 | 32

The molecules below were run on SW-620 colon (assay: inhibition of tumour cell growth, NCI panel, 48 h).

SMILES | TGI [µM]
Nc1cc2c3c(cccc3c1)C(=O)N(c1ccc(OCCN3CCCC3)cc1)C2=O | 97
Cc1cc2ccc(N)nc2[nH]c1=O | > 100
O=C(N/N=C\c1ccc([N+](=O)[O-])s1)c1ccncc1 | > 45.4
C=C1C(=O)OC2C3OC(C)(CCC(O)C3COC(C)=O)CC(OC(=O)/C(=C/C)COC(C)=O)C12 (stereo not given) | 0.261
COc1ccccc1NC(=S)N/N=C/c1cccc(C)n1 | > 100
CCOC(=O)/C=C/[C@@H](CC)O[Si](C(C)C)(C(C)C)C(C)C | > 100
Cc1c(O)c(=O)ccn1CCc1ccc(O)cc1 | > 100

These molecules were tested on NCI-H522 lung (assay: inhibition of tumour cell growth, NCI panel, 48 h).

SMILES | TGI [µM]
Nc1cc2c3c(cccc3c1)C(=O)N(c1ccc(OCCN3CCCC3)cc1)C2=O | 30.7
Cc1cc2ccc(N)nc2[nH]c1=O | > 100
O=C(N/N=C\c1ccc([N+](=O)[O-])s1)c1ccncc1 | 19.7
C=C1C(=O)OC2C3OC(C)(CCC(O)C3COC(C)=O)CC(OC(=O)/C(=C/C)COC(C)=O)C12 (stereo not given) | 0.0749
COc1ccccc1NC(=S)N/N=C/c1cccc(C)n1 | > 54.8
CCOC(=O)/C=C/[C@@H](CC)O[Si](C(C)C)(C(C)C)C(C)C | > 100

Each molecule was assayed on HOP-92 NSCLC (assay: inhibition of tumour cell growth, NCI panel, 48 h).

SMILES | TGI [µM]
Nc1cc2c3c(cccc3c1)C(=O)N(c1ccc(OCCN3CCCC3)cc1)C2=O | 50.6
Cc1cc2ccc(N)nc2[nH]c1=O | > 100
O=C(N/N=C\c1ccc([N+](=O)[O-])s1)c1ccncc1 | 32.8
C=C1C(=O)OC2C3OC(C)(CCC(O)C3COC(C)=O)CC(OC(=O)/C(=C/C)COC(C)=O)C12 (stereo not given) | 0.392
COc1ccccc1NC(=S)N/N=C/c1cccc(C)n1 | > 92.8
CCOC(=O)/C=C/[C@@H](CC)O[Si](C(C)C)(C(C)C)C(C)C | > 100
Cc1c(O)c(=O)ccn1CCc1ccc(O)cc1 | 57

These molecules were tested on MCF7 breast (assay: inhibition of tumour cell growth, NCI panel, 48 h).

SMILES | TGI [µM]
Nc1cc2c3c(cccc3c1)C(=O)N(c1ccc(OCCN3CCCC3)cc1)C2=O | 31.5
Cc1cc2ccc(N)nc2[nH]c1=O | > 100
O=C(N/N=C\c1ccc([N+](=O)[O-])s1)c1ccncc1 | 9.96
C=C1C(=O)OC2C3OC(C)(CCC(O)C3COC(C)=O)CC(OC(=O)/C(=C/C)COC(C)=O)C12 (stereo not given) | 0.533
COc1ccccc1NC(=S)N/N=C/c1cccc(C)n1 | > 100
CCOC(=O)/C=C/[C@@H](CC)O[Si](C(C)C)(C(C)C)C(C)C | > 100
Cc1c(O)c(=O)ccn1CCc1ccc(O)cc1 | 58.2

What follows are molecules tested on MDA-MB-435 (assay: inhibition of tumour cell growth, NCI panel, 48 h).

SMILES | TGI [µM]
Nc1cc2c3c(cccc3c1)C(=O)N(c1ccc(OCCN3CCCC3)cc1)C2=O | 42.4
Cc1cc2ccc(N)nc2[nH]c1=O | > 100
O=C(N/N=C\c1ccc([N+](=O)[O-])s1)c1ccncc1 | > 55
C=C1C(=O)OC2C3OC(C)(CCC(O)C3COC(C)=O)CC(OC(=O)/C(=C/C)COC(C)=O)C12 (stereo not given) | 12.6
COc1ccccc1NC(=S)N/N=C/c1cccc(C)n1 | > 100
CCOC(=O)/C=C/[C@@H](CC)O[Si](C(C)C)(C(C)C)C(C)C | > 100
Cc1c(O)c(=O)ccn1CCc1ccc(O)cc1 | > 100

Each molecule was assayed on OVCAR-5 ovarian (assay: inhibition of tumour cell growth, NCI panel, 48 h).

SMILES | TGI [µM]
Nc1cc2c3c(cccc3c1)C(=O)N(c1ccc(OCCN3CCCC3)cc1)C2=O | 46.3
Cc1cc2ccc(N)nc2[nH]c1=O | > 100
O=C(N/N=C\c1ccc([N+](=O)[O-])s1)c1ccncc1 | > 66.9
C=C1C(=O)OC2C3OC(C)(CCC(O)C3COC(C)=O)CC(OC(=O)/C(=C/C)COC(C)=O)C12 (stereo not given) | 1.12
COc1ccccc1NC(=S)N/N=C/c1cccc(C)n1 | > 100
CCOC(=O)/C=C/[C@@H](CC)O[Si](C(C)C)(C(C)C)C(C)C | > 100
Cc1c(O)c(=O)ccn1CCc1ccc(O)cc1 | > 100

The molecules below were run on TK-10 renal (assay: inhibition of tumour cell growth, NCI panel, 48 h).

SMILES | TGI [µM]
Nc1cc2c3c(cccc3c1)C(=O)N(c1ccc(OCCN3CCCC3)cc1)C2=O | 35.6
Cc1cc2ccc(N)nc2[nH]c1=O | > 100
O=C(N/N=C\c1ccc([N+](=O)[O-])s1)c1ccncc1 | > 51.7
C=C1C(=O)OC2C3OC(C)(CCC(O)C3COC(C)=O)CC(OC(=O)/C(=C/C)COC(C)=O)C12 (stereo not given) | 0.562
COc1ccccc1NC(=S)N/N=C/c1cccc(C)n1 | > 100
CCOC(=O)/C=C/[C@@H](CC)O[Si](C(C)C)(C(C)C)C(C)C | > 100
Cc1c(O)c(=O)ccn1CCc1ccc(O)cc1 | > 100

What follows are molecules tested on SF-295 CNS (assay: inhibition of tumour cell growth, NCI panel, 48 h).

SMILES | TGI [µM]
Nc1cc2c3c(cccc3c1)C(=O)N(c1ccc(OCCN3CCCC3)cc1)C2=O | 27.4
Cc1cc2ccc(N)nc2[nH]c1=O | > 100
O=C(N/N=C\c1ccc([N+](=O)[O-])s1)c1ccncc1 | 44.5
C=C1C(=O)OC2C3OC(C)(CCC(O)C3COC(C)=O)CC(OC(=O)/C(=C/C)COC(C)=O)C12 (stereo not given) | 22.3
COc1ccccc1NC(=S)N/N=C/c1cccc(C)n1 | > 100
CCOC(=O)/C=C/[C@@H](CC)O[Si](C(C)C)(C(C)C)C(C)C | > 100
Cc1c(O)c(=O)ccn1CCc1ccc(O)cc1 | > 100

The molecules below were run on HT29 colon (assay: inhibition of tumour cell growth, NCI panel, 48 h).

SMILES | TGI [µM]
Nc1cc2c3c(cccc3c1)C(=O)N(c1ccc(OCCN3CCCC3)cc1)C2=O | 29.8
Cc1cc2ccc(N)nc2[nH]c1=O | > 100
O=C(N/N=C\c1ccc([N+](=O)[O-])s1)c1ccncc1 | 15.9
C=C1C(=O)OC2C3OC(C)(CCC(O)C3COC(C)=O)CC(OC(=O)/C(=C/C)COC(C)=O)C12 (stereo not given) | 0.521
COc1ccccc1NC(=S)N/N=C/c1cccc(C)n1 | > 100
CCOC(=O)/C=C/[C@@H](CC)O[Si](C(C)C)(C(C)C)C(C)C | > 100
Cc1c(O)c(=O)ccn1CCc1ccc(O)cc1 | > 100

These molecules were tested on RPMI-8226 leukemia (assay: inhibition of tumour cell growth, NCI panel, 48 h).

SMILES | TGI [µM]
Nc1cc2c3c(cccc3c1)C(=O)N(c1ccc(OCCN3CCCC3)cc1)C2=O | 56.3
Cc1cc2ccc(N)nc2[nH]c1=O | > 100
O=C(N/N=C\c1ccc([N+](=O)[O-])s1)c1ccncc1 | > 41.3
C=C1C(=O)OC2C3OC(C)(CCC(O)C3COC(C)=O)CC(OC(=O)/C(=C/C)COC(C)=O)C12 (stereo not given) | 0.339
COc1ccccc1NC(=S)N/N=C/c1cccc(C)n1 | > 100
CCOC(=O)/C=C/[C@@H](CC)O[Si](C(C)C)(C(C)C)C(C)C | 94.6
Cc1c(O)c(=O)ccn1CCc1ccc(O)cc1 | 45.4

Each molecule was assayed on MDA-N (assay: inhibition of tumour cell growth, NCI panel, 48 h).

SMILES | TGI [µM]
Nc1cc2c3c(cccc3c1)C(=O)N(c1ccc(OCCN3CCCC3)cc1)C2=O | 34.7
Cc1cc2ccc(N)nc2[nH]c1=O | > 100
O=C(N/N=C\c1ccc([N+](=O)[O-])s1)c1ccncc1 | > 55.8
C=C1C(=O)OC2C3OC(C)(CCC(O)C3COC(C)=O)CC(OC(=O)/C(=C/C)COC(C)=O)C12 (stereo not given) | 0.645
COc1ccccc1NC(=S)N/N=C/c1cccc(C)n1 | > 100
CCOC(=O)/C=C/[C@@H](CC)O[Si](C(C)C)(C(C)C)C(C)C | > 100
Cc1c(O)c(=O)ccn1CCc1ccc(O)cc1 | > 100

The molecules below were run on SR leukemia (assay: inhibition of tumour cell growth, NCI panel, 48 h).

SMILES | TGI [µM]
Nc1cc2c3c(cccc3c1)C(=O)N(c1ccc(OCCN3CCCC3)cc1)C2=O | 50.9
Cc1cc2ccc(N)nc2[nH]c1=O | > 100
O=C(N/N=C\c1ccc([N+](=O)[O-])s1)c1ccncc1 | 12.2
C=C1C(=O)OC2C3OC(C)(CCC(O)C3COC(C)=O)CC(OC(=O)/C(=C/C)COC(C)=O)C12 (stereo not given) | 0.713
COc1ccccc1NC(=S)N/N=C/c1cccc(C)n1 | 10.4
CCOC(=O)/C=C/[C@@H](CC)O[Si](C(C)C)(C(C)C)C(C)C | > 100
Cc1c(O)c(=O)ccn1CCc1ccc(O)cc1 | > 100

What follows are molecules tested on HCC-2998 colon (assay: inhibition of tumour cell growth, NCI panel, 48 h).

SMILES | TGI [µM]
Nc1cc2c3c(cccc3c1)C(=O)N(c1ccc(OCCN3CCCC3)cc1)C2=O | 31.3
O=C(N/N=C\c1ccc([N+](=O)[O-])s1)c1ccncc1 | 24
C=C1C(=O)OC2C3OC(C)(CCC(O)C3COC(C)=O)CC(OC(=O)/C(=C/C)COC(C)=O)C12 (stereo not given) | 2.59
COc1ccccc1NC(=S)N/N=C/c1cccc(C)n1 | > 100
CCOC(=O)/C=C/[C@@H](CC)O[Si](C(C)C)(C(C)C)C(C)C | > 100
